Experimental data: article PMC6588697, “Lugdunin amplifies innate immune responses in the skin in synergy with host- and microbiota-derived factors” (Nature Communications, 2019)
No end group written: not given here.

Tests used:
S. aureus USA300 = assay: Antimicrobial testing (bactericidal, CFU) against S. aureus USA300; type: cell-based, Staphylococcus aureus; details: for S. aureus USA300 CFU normalized to untreated control (1.00): 3 h, mean of at least three experiments
Description: Fig. 5 Synergistic action of lugdunin and human antimicrobial peptides (AMPs) kills methicillin-resistant S. aureus (MRSA). a, c Logarithmically grown (3 × 10^6) S. aureus were incubated with indicated combinations of lugdunin and human AMPs in phosphate-buffered saline (PBS) containing 0.1% tryptic soy broth (TSB) at 37 °C orbital shaking (white bar, untreated; dark gray bars, AMP treatment; middle gray bars, lugdunin treatment; light gray bars, AMP and lugdunin combination treatment). After 3 h of incubation, several dilutions of the bacterial suspensions were plated onto TSB agar plates and incubated overnight at 37 °C. The next day S. aureus colony-forming units (CFUs) were counted. Each experiment was performed in triplicates. Data represent the percentage of CFU of at least three independent experiments normalized to the untreated control ± s.e.m. Significant differences to control treatments were analyzed by ordinary one-way analysis of variance (ANOVA) followed by Dunnett’s multiple comparisons test (*P < 0.05; **P < 0.01; ***P < 0.001; ****P < 0.0001). b Combination indices (CIs) were calculated using CompuSyn (ComboSyn Inc.) and indicated in median effect plots as a function of the bacteria fractions affected by the combinatorial peptide treatment. CI values of 1 indicate additive effects, whereas values <1 and >1 indicate synergistic and antagonistic effects, respectively. Source data are provided as a Source Data file TEXT PRINTED IN THE PICTURE: (a) DCD-1: S. aureus USA300, Lugdunin μM 0: 1.00 (DCD-1 μM: 0); S. aureus USA300, Lugdunin μM 1: 1.08 (DCD-1 μM: 0); S. aureus USA300, Lugdunin μM 2: 1.11 (DCD-1 μM: 0); S. aureus USA300, Lugdunin μM 3: 0.97 (DCD-1 μM: 0); S. aureus USA300, Lugdunin μM 0: 1.06 (DCD-1 μM: 1); S. aureus USA300, Lugdunin μM 1: 0.91 (DCD-1 μM: 1); S. aureus USA300, Lugdunin μM 2: 0.85 (DCD-1 μM: 1); S. aureus USA300, Lugdunin μM 3: 0.60 (DCD-1 μM: 1); S. aureus USA300, Lugdunin μM 0: 1.19 (DCD-1 μM: 2); S. aureus USA300, Lugdunin μM 1: 0.84 (DCD-1 μM: 2); S. aureus USA300, Lugdunin μM 2: 0.43 (DCD-1 μM: 2); S. aureus USA300, Lugdunin μM 3: 0.21 (DCD-1 μM: 2) | (a) DCD-1L: S. aureus USA300, Lugdunin μM 0: 1.00 (DCD-1L μM: 0); S. aureus USA300, Lugdunin μM 1: 1.08 (DCD-1L μM: 0); S. aureus USA300, Lugdunin μM 2: 1.11 (DCD-1L μM: 0); S. aureus USA300, Lugdunin μM 3: 0.97 (DCD-1L μM: 0); S. aureus USA300, Lugdunin μM 0: 1.13 (DCD-1L μM: 1); S. aureus USA300, Lugdunin μM 1: 0.98 (DCD-1L μM: 1); S. aureus USA300, Lugdunin μM 2: 0.68 (DCD-1L μM: 1); S. aureus USA300, Lugdunin μM 3: 0.07 (DCD-1L μM: 1); S. aureus USA300, Lugdunin μM 0: 1.37 (DCD-1L μM: 2); S. aureus USA300, Lugdunin μM 1: 0.60 (DCD-1L μM: 2); S. aureus USA300, Lugdunin μM 2: 0.42 (DCD-1L μM: 2); S. aureus USA300, Lugdunin μM 3: 0.02 (DCD-1L μM: 2) | (a) IL-37: S. aureus USA300, Lugdunin μM 0: 1.00 (IL-37 μM: 0); S. aureus USA300, Lugdunin μM 1: 1.08 (IL-37 μM: 0); S. aureus USA300, Lugdunin μM 2: 1.11 (IL-37 μM: 0); S. aureus USA300, Lugdunin μM 3: 0.97 (IL-37 μM: 0); S. aureus USA300, Lugdunin μM 0: 1.86 (IL-37 μM: 1); S. aureus USA300, Lugdunin μM 1: 1.27 (IL-37 μM: 1); S. aureus USA300, Lugdunin μM 2: 1.23 (IL-37 μM: 1); S. aureus USA300, Lugdunin μM 3: 1.90 (IL-37 μM: 1); S. aureus USA300, Lugdunin μM 0: 2.49 (IL-37 μM: 2); S. aureus USA300, Lugdunin μM 1: 1.28 (IL-37 μM: 2); S. aureus USA300, Lugdunin μM 2: 0.89 (IL-37 μM: 2); S. aureus USA300, Lugdunin μM 3: 0.38 (IL-37 μM: 2) DOUBTS OF THE COPYIST ABOUT THIS PICTURE: Panel a, third matrix: the row label reads IL-37, but it may be LL-37, as printed in panels b and c. / Panel a: the picture prints no measure for the matrix numbers, only the colour scale 'Growth – Killing, S. aureus USA300'. Each cell is a combination of Lugdunin (column, μM) with the peptide (row, μM). / Panel a: rows and columns at 0 μM are a single agent or the untreated control. […]

E. coli = assay: Antimicrobial testing (CFU) against E. coli; type: cell-based, Escherichia coli; details: 3 h, mean
E. faecalis = assay: Antimicrobial testing (CFU) against E. faecalis; type: cell-based, Enterococcus faecalis; details: 3 h, mean
P. aeruginosa = assay: Antimicrobial testing (CFU) against P. aeruginosa; type: cell-based, Pseudomonas aeruginosa; details: 3 h
[1] = single peptide 1 µM, PBS + 0.1% TSB, 37 °C, mean of at least three experiments
[2] = single peptide 0.4 µM, PBS + 0.1% TSB, 37 °C

| Substance | S. aureus USA300 CFU normalized to untreated control (1.00) (S. aureus USA300; single peptide 1 µM) | S. aureus USA300 CFU normalized to untreated control (1.00) (S. aureus USA300; single peptide 2 µM) | E. coli CFU normalized to untreated control (1,00) (E. coli; single peptide 1 µM) | E. coli CFU normalized to untreated control (1,00) (E. coli; single peptide 2 µM) | E. faecalis CFU normalized to untreated control (1,00) (E. faecalis; single peptide 1 µM) | E. faecalis CFU normalized to untreated control (1,00) (E. faecalis; single peptide 2 µM) | P. aeruginosa CFU normalized to untreated control (1,00) (P. aeruginosa; [1]) | P. aeruginosa CFU normalized to untreated control (1,00) (P. aeruginosa; single peptide 2 µM, mean) | S. aureus USA300 CFU normalized to untreated control (1.00) (S. aureus USA300; [2]) | S. aureus USA300 CFU normalized to untreated control (1.00) (S. aureus USA300; single peptide 0.6 µM) | S. aureus USA300 CFU normalized to untreated control (1.00) (S. aureus USA300; single peptide 0.8 µM) | E. coli CFU normalized to untreated control (1,00) (E. coli; single peptide 3 µM) | E. faecalis CFU normalized to untreated control (1,00) (E. faecalis; single peptide 3 µM) | P. aeruginosa CFU normalized to untreated control (1,00) (P. aeruginosa; single peptide 3 µM, mean) | antimicrobial activity on co-incubation with human AMPs (in words) (S. aureus USA300; S. aureus USA300, text to Supp Figs 5, 6) |
| --- | --- | --- | --- | --- | --- | --- | --- | --- | --- | --- | --- | --- | --- | --- | --- |
| SSLLEKGLDGAKKAVGGLGKLGKDAVEDLESVGKGAVHDVKDVLDSV [DCD-1, dermcidin-derived human AMP of eccrine sweat glands] | 1,06 | 1,19 | 1,31 | 1,87 | 1,48 | 1,58 | 0,93 | 1,21 |  |  |  |  |  |  |  |
| IASKFLCTPGCAKTGSFNSYCC (also: bicyclic or more (positions not given here)) [Gallidermin, bacteriocin isolated from Staphylococcus gallinarum] |  |  |  |  |  |  |  |  | 0,84 | 0,91 | 0,74 |  |  |  |  |
| ITSISLCTPGCKTGALMGCNMKTATCHCSIHVSK (not fully specified (bridges); also: lanthionine rings, places not given here) [Nisin, bacteriocin of Lactococcus lactis, purchased from Sigma] |  |  |  |  |  |  |  |  | 1,31 | 1,49 | 1,49 |  |  |  |  |
| Lugdunin | 1,08 | 1,11 | 1,05 | 1,34 | 1,21 | 1,27 | 1,34 | 1,01 |  |  |  | 1,27 | 0,99 | 1,41 |  |
| MEAVKEKNELFDLDVKVNAKESNDSGAEPRIASKFLCTPGCAKTGSFNSYCC [Pro-Gallidermin, non-bactericidal pro-form of gallidermin] |  |  |  |  |  |  |  |  | 1,34 | 1,61 | 1,30 |  |  |  | did not lead to antimicrobial activity |
| LLGDFFRKSKEKIGKEFKRIVQRIKDFLRNLVPRTES [LL-37, human cathelicidin AMP] | 1,86 | 2,49 |  |  |  |  |  |  |  |  |  |  |  |  |  |
| SSLLEKGLDGAKKAVGGLGKLGKDAVEDLESVGKGAVHDVKDVLDSVL [DCD-1L, dermcidin-derived human AMP of eccrine sweat glands] | 1,13 |  | 1,26 | 1,92 | 1,40 | 1,55 | 1,39 | 1,19 |  |  |  |  |  |  |  |
